Data from patent US8399480B2, “Hydroxymethyl pyrrolidines as beta 3 adrenergic receptor agonists” (Merck Sharp & Dohme Corp., priority 2008, dated 2013).

molecular target: T1, human β3 adrenergic receptor (Homo sapiens, UniProt P13945); experiment: Functional assay: cAMP production (LANCE TR-FRET) in CHO cells stably transfected with cloned β3 adrenergic receptor; assay type: cell-based; settings: Table 4; human β3 functional activity; read-out: Human β Binding
T1 construct: expressed in transfected cells; host or cells: Chinese hamster ovary (CHO) cells, stably transfected
T1 sequence (P13945 whole entry): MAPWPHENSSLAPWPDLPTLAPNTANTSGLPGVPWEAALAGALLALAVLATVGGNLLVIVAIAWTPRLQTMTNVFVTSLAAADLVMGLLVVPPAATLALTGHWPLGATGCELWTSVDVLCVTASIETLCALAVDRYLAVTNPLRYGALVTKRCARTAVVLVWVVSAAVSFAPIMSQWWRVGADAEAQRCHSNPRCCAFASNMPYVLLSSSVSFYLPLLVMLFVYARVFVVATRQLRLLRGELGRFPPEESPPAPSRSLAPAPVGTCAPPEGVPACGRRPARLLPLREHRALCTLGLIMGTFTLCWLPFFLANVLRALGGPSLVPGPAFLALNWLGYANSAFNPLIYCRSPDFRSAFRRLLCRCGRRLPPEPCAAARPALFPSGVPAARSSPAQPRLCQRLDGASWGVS
Protocol: Chinese hamster ovary (CHO) cells, stably transfected with the cloned β-adrenergic receptor (β1, β2 or β3) are harvested after 3 days of subculturing. Harvesting of cells is done with Enzyme-free Dissociation Media (Specialty Media). Cells are then counted and resuspended in assay buffer (Hank's Balanced salt solution supplemented with 5 mM HEPES, 0.1% BSA) containing a phosphodiesterase inhibitor (IBMX, 0.6 mM). The reaction is initiated by mixing 6,000 cells in 6 μL with 6 μL Alexa Fluor labeled cAMP antibody (LANCE™ kit) which is then added to an assay well containing 12 μL of compound (diluted in assay buffer to 2× final concentration). The reaction proceeds for 30 min at room temperature and is terminated by the addition of 24 μL detection buffer (LANCE™ kit). The assay plate is then incubated for 1 h at room temperature and time-resolved fluorescence measured on a Perkin Elmer Envision reader or equivalent. The unknown cAMP level is determined by comparing fluorescence levels to a cAMP standard curve.
The non-selective, full agonist β-adrenergic ligand isoproterenol is used at all three receptors to determine maximal stimulation. […] Data are analyzed using Microsoft Excel and Graphpad Prism or an internally developed data analysis software package.

Compound	EC50
O=C(Cc1nnc(-c2cscn2)[nH]1)Nc1ccc(C[C@@H]2CC[C@H]([C@H](O)c3ccccc3)N2)cc1 [Example 24]	1 to 10 nM
Cc1cn(CC(=O)Nc2ccc(C[C@@H]3CC[C@H]([C@H](O)c4ccccc4)N3)cc2)c(=O)[nH]c1=O [Example 52]	1 to 10 nM
O=C(Cc1nnn[nH]1)Nc1ccc(C[C@@H]2CC[C@H]([C@H](O)c3ccccc3)N2)cc1 [Example 75]	11 to 100 nM
O=C(Cn1c(=O)[nH]c2ccccc2c1=O)Nc1ccc(C[C@@H]2CC[C@H]([C@H](O)c3ccccc3)N2)cc1 [Example 50]	< 1 nM
Cn1nnnc1CC(=O)Nc1ccc(C[C@@H]2CC[C@H]([C@H](O)c3ccccc3)N2)cc1 [Example 76]	11 to 100 nM
Cn1nccc1-c1nnc(CC(=O)Nc2ccc(C[C@@H]3CC[C@H]([C@H](O)c4ccccc4)N3)cc2)[nH]1 [Example 28]	11 to 100 nM
Cc1cccc2c(=O)n(CC(=O)Nc3ccc(C[C@@H]4CC[C@H]([C@H](O)c5ccccc5)N4)cc3)cnc12 [Example 58]	1 to 10 nM
Cc1nnc(CC(=O)Nc2ccc(C[C@@H]3CC[C@H]([C@H](O)c4ccccc4)N3)cc2)[nH]1 [Example 21]	11 to 100 nM
O=C(Cc1cccc(F)c1F)Nc1ccc(C[C@@H]2CC[C@H]([C@H](O)c3ccccc3)N2)cc1 [Example 72]	11 to 100 nM
Cc1ccc(OCC(=O)Nc2ccc(C[C@@H]3CC[C@H]([C@H](O)c4ccccc4)N3)cc2)nn1 [Example 95]	11 to 100 nM
O=C(CC1CCCNC1=O)Nc1ccc(C[C@@H]2CC[C@H]([C@H](O)c3ccccc3)N2)cc1 (some centres unmarked) [Example 85]	101 to 1000 nM
O=C(Cn1ccc(=O)[nH]c1=O)Nc1ccc(C[C@@H]2CC[C@H]([C@H](O)c3ccccc3)N2)cc1 [Example 63]	1 to 10 nM

same assay, conditions: Table 5; read-out: Human β3 Functional

Compound	EC50
Cc1cc(C(C)C(=O)Nc2ccc(C[C@@H]3CC[C@H]([C@H](O)c4ccccc4)N3)cc2)[nH]n1 (single isomer, unassigned) [Example 184]	11 to 100 nM
Cc1cc(C(C)C(=O)Nc2ccc(C[C@@H]3CC[C@H]([C@H](O)c4ccccc4)N3)cc2)[nH]n1 (single isomer, unassigned) [Example 185]	1 to 10 nM
O=C(Nc1ccc(C[C@@H]2CC[C@H]([C@H](O)c3ccccc3)N2)cc1)C1CCc2cccnc21 (single isomer, unassigned) [Example 133]	< 1 nM
CC(C(=O)Nc1ccc(C[C@@H]2CC[C@H]([C@H](O)c3ccccc3)N2)cc1)n1cncn1 (single isomer, unassigned) [Example 177]	1 to 10 nM
Cc1noc2c1CCC2C(=O)Nc1ccc(C[C@@H]2CC[C@H]([C@H](O)c3ccccc3)N2)cc1 (single isomer, unassigned) [Example 140]	11 to 100 nM
CC(C(=O)Nc1ccc(C[C@@H]2CC[C@H]([C@H](O)c3ccccc3)N2)cc1)N1CCOC1=O (single isomer, unassigned) [Example 209]	11 to 100 nM
CC(C(=O)Nc1ccc(C[C@@H]2CC[C@H]([C@H](O)c3ccccc3)N2)cc1)n1cc(C(=O)O)nn1 (single isomer, unassigned) [Example 191]	11 to 100 nM
O=C(Nc1ccc(C[C@@H]2CC[C@H]([C@H](O)c3ccccc3)N2)cc1)C1CCc2ccccc2C1 (single isomer, unassigned) [Example 108]	101 to 1000 nM
CCC(C(=O)Nc1ccc(C[C@@H]2CC[C@H]([C@H](O)c3ccccc3)N2)cc1)n1cccn1 (single isomer, unassigned) [Example 218]	1 to 10 nM
CC(C(=O)Nc1ccc(C[C@@H]2CC[C@H]([C@H](O)c3ccccc3)N2)cc1)n1cccnc1=O (single isomer, unassigned) [Example 161]	< 1 nM
O=C(Nc1ccc(C[C@@H]2CC[C@H]([C@H](O)c3ccccc3)N2)cc1)C1CCc2ccccc21 (single isomer, unassigned) [Example 111]	101 to 1000 nM
CC(C(=O)Nc1ccc(C[C@@H]2CC[C@H]([C@H](O)c3ccccc3)N2)cc1)n1cnnn1 (single isomer, unassigned) [Example 173]	1 to 10 nM
O=C(O)c1nc2c(s1)CCC2C(=O)Nc1ccc(C[C@@H]2CC[C@H]([C@H](O)c3ccccc3)N2)cc1 (single isomer, unassigned) [Example 142]	101 to 1000 nM
CC(C(=O)Nc1ccc(C[C@@H]2CC[C@H]([C@H](O)c3ccccc3)N2)cc1)n1cncn1 (single isomer, unassigned) [Example 176]	1 to 10 nM
CC(C(=O)Nc1ccc(C[C@@H]2CC[C@H]([C@H](O)c3ccccc3)N2)cc1)N1CCOC1=O (single isomer, unassigned) [Example 208]	1 to 10 nM
CC(Oc1cccnn1)C(=O)Nc1ccc(C[C@@H]2CC[C@H]([C@H](O)c3ccccc3)N2)cc1 (single isomer, unassigned) [Example 215]	11 to 100 nM
CC(C(=O)Nc1ccc(C[C@@H]2CC[C@H]([C@H](O)c3ccccc3)N2)cc1)c1ccccn1 (single isomer, unassigned) [Example 204]	1 to 10 nM
CC(C(=O)Nc1ccc(C[C@@H]2CC[C@H]([C@H](O)c3ccccc3)N2)cc1)n1ccnn1 (single isomer, unassigned) [Example 183]	1 to 10 nM
Cc1nc2c(s1)CCC2C(=O)Nc1ccc(C[C@@H]2CC[C@H]([C@H](O)c3ccccc3)N2)cc1 (single isomer, unassigned) [Example 118]	1 to 10 nM
CC(C(=O)Nc1ccc(C[C@@H]2CC[C@H]([C@H](O)c3ccccc3)N2)cc1)c1nccs1 (single isomer, unassigned) [Example 201]	1 to 10 nM
CC(C(=O)Nc1ccc(C[C@@H]2CC[C@H]([C@H](O)c3ccccc3)N2)cc1)c1nnc[nH]1 (single isomer, unassigned) [Example 168]	1 to 10 nM
CC(C(=O)Nc1ccc(C[C@@H]2CC[C@H]([C@H](O)c3ccccc3)N2)cc1)n1ccccc1=O (single isomer, unassigned) [Example 202]	1 to 10 nM
O=C(Nc1ccc(C[C@@H]2CC[C@H]([C@H](O)c3ccccc3)N2)cc1)C1CCc2cccnc21 (single isomer, unassigned) [Example 132]	< 1 nM
Nc1nc2c(s1)CCCC2C(=O)Nc1ccc(C[C@@H]2CC[C@H]([C@H](O)c3ccccc3)N2)cc1 (single isomer, unassigned) [Example 117]	< 1 nM
O=C(Nc1ccc(C[C@@H]2CC[C@H]([C@H](O)c3ccccc3)N2)cc1)C1CCCc2ccnn21 (single isomer, unassigned) [Example 157]	11 to 100 nM
O=C(Nc1ccc(C[C@@H]2CC[C@H]([C@H](O)c3ccccc3)N2)cc1)C1CCc2ccc(=O)[nH]c21 (single isomer, unassigned) [Example 135]	101 to 1000 nM
O=C(Nc1ccc(C[C@@H]2CC[C@H]([C@H](O)c3ccccc3)N2)cc1)C1CCc2cn[nH]c21 (single isomer, unassigned) [Example 137]	11 to 100 nM
C[C@@H](C(=O)Nc1ccc(C[C@@H]2CC[C@H]([C@H](O)c3ccccc3)N2)cc1)c1csc(N)n1 [Example 104]	< 1 nM

same assay, conditions: Table 7; β3AR-cAMP; read-out: Human β3 Functional

Compound	EC50
Cc1nnc(-c2cccc(S(=O)(=O)Nc3ccc(C[C@@H]4CC[C@H]([C@H](O)c5ccccc5)N4)cc3)c2)o1 [Example 242]	101 to 1000 nM

same assay, conditions: Table 8; read-out: Human β3 Functional

Compound	EC50
O=C(Nc1ccc(C[C@@H]2CC[C@H]([C@H](O)c3ccccc3)N2)cc1)N1CCC2(CCOC2=O)CC1 [Example 258]	101 to 1000 nM

same assay, conditions: Table 11; read-out: Human β3 Functional

Compound	EC50
Nc1nc2c(s1)CCC2C(=O)Nc1ccc(CC2CCC(C(O)c3ccc(F)cc3)N2)cc1 (single isomer, unassigned) [Example 283]	< 1 nM
CC(C(=O)Nc1ccc(CC2CCC(C(O)c3ccc(F)cc3)N2)cc1)c1cscn1 (single isomer, unassigned) [Example 286]	< 1 nM

same assay, conditions: Table 12; read-out: Human β3 Functional

Compound	EC50
Nc1nc2c(s1)CCC2C(=O)Nc1ccc(CC2CCC(C(O)c3ccc(F)c(F)c3)N2)cc1 (single isomer, unassigned) [Example 288]	11 to 100 nM

same assay, conditions: given as a range; cAMP, CHO cells; read-out: human β3 functional activity

Compound	EC50
CC(C(=O)Nc1ccc(C[C@@H]2CC[C@H]([C@H](O)c3cccc(F)c3)N2)cc1)c1cscn1 (single isomer, unassigned) [Example 274]	11 to 100 nM
O=S(=O)(Nc1ccc(C[C@@H]2CC[C@H]([C@H](O)c3ccccc3)N2)cc1)c1ccc(-c2nc(-c3ccc(C(F)(F)F)cc3)cs2)cc1 [Example 233, N-[4-({(2S,5R)-5-[(R)-hydroxy(phenyl)methyl]pyrrolidin-2-yl}methyl)phenyl]-4-{4-[4-(trifluoromethyl)phenyl]-1,3-thiazol-2-yl}benzenesulfonamide]	1 to 10 nM
C[C@H](NC(=O)c1ccccc1F)C(=O)Nc1ccc(C[C@@H]2CC[C@H]([C@H](O)c3ccccc3)N2)cc1 [Example 263, 2-Fluoro-N-((1S)-2-{[4-({(2S,5R)-5-[(R)-hydroxy(phenyl)methyl]pyrrolidin-2-yl}methyl)phenyl]amino}-1-methyl-2-oxoethyl)benzamide]	< 1 nM

same assay, conditions: human β3 functional activity, shown as ranges; Table 13; read-out: Human β3 Functional

Compound	EC50
O=C(Nc1ccc(CC2CCC(C(O)c3cccc(Cl)c3)N2)cc1)C1CCc2sc(F)nc21 (single isomer, unassigned) [Example 301]	11 to 100 nM
Nc1nc2c(s1)CCC2C(=O)Nc1ccc(CC2CCC(C(O)c3cccc(Cl)c3)N2)cc1 (single isomer, unassigned) [Example 294]	11 to 100 nM
